# According to paper PMC11352409, “Subtype-Specific Ligand Binding and Activation Gating in Homomeric and Heteromeric P2X Receptors” (Biomolecules, 2024):
# Biological target: T1, human P2X3 receptors (Homo sapiens, UniProt P56373)
# T1 construct: expressed in transfected cells
# T1 sequence (P56373 1-397): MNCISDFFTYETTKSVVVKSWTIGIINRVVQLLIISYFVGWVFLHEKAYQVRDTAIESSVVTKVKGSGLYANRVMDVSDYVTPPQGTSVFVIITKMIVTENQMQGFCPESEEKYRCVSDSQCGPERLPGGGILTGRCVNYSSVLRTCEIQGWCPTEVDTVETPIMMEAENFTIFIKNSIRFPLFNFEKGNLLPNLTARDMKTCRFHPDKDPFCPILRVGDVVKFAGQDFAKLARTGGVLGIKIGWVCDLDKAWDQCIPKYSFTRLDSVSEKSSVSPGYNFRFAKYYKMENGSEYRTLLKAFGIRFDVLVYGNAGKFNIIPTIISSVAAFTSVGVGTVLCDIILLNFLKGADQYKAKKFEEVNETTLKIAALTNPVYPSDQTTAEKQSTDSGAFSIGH
# Test: Whole-cell patch-clamp concentration-activation, HEK293 cells stably expressing hP2X3
# Type: cell-based
# Details: for Hill: hP2X3, Hill coefficient of concentration-activation fit; for Effect (Fold in ATP Potency): hP2X3, relative to ATP; for Effect (Fold in ATP Efficacy): hP2X3, relative to current at 100 µM ATP; for EC50: hP2X3, whole-cell, -50 mV, divalent-cation-free bath with 10 mM EGTA, normalised to 100 µM ATP
# Method: Human P2X receptors were expressed from HEK293 cell lines containing an inducible promoter system (Flp-In-T-REx 293, Invitrogen, Waltham, MA, USA). The used cell lines were: hP2X2 B (RRID: AC line CVCL_D6U1), hP2X3 (RRID: AC line CVCL_D6U3), and hP2X2/3 (RRID: AC line CVCL_D6U2). The cells were cultured in MEM supplemented with non-essential amino acids (Gibco, Waltham, MA, USA), 10% FCS, and antibiotics, according to the manufacturer’s instructions. For stable cell lines, Flp-In-T-REx 293 cells were transfected using the calcium phosphate method with a mixture of plasmids (0.3 µg pcDNA5/FRT/TO P2X gene and 1.5 µg pOG44) and selected for hygromycin resistance. The cells were seeded on glass coverslips for electrophysiological measurements and used 24–48 h after tetracycline induction ([…]).
# Membrane currents were recorded with a standard patch-clamp technique in the whole-cell configuration. The patch pipettes were pulled from borosilicate glass (ID 1.0 mm, OD 2.0 mm; VITROCOM, Mountain Lakes, NJ, USA) using a micropipette puller (P-97, Sutter Instrument, Novato, CA, USA). The pipettes were filled with intracellular solution containing (mM) 142 NaCl, 5 BAPTA, 5 EGTA, and 10 HEPES at pH 7.4. The pipette resistance was from 2.0 to 6.0 MΩ. The bath solution contained (mM) 142 NaCl, 10 EGTA, 10 HEPES, and 10 glucose at pH 7.4. To increase the speed of recovery from the hP2X3 receptors, we additionally used a bath solution containing (mM) 142 NaCl, 10 HEPES, 10 glucose, 2 CaCl2, and 1 MgCl2. The cells were lifted for recording from the chamber bottom by the patch pipette and positioned in front of the outlet of the application pipette.
# Solutions switches were carried out with the application pipette that had three barrels (inner diameter ~600 µm, Warner Instruments) controlled by a step motor (SF-77B, Warner Instruments). The speed of the laminar solution flow out of the barrels was estimated to be 2–5 cm/s. One barrel contained a control solution and another was connected to a solution selector (Vici Valco Instruments), which allowed us to apply different test solutions by exchanging the solution during the interval (60 sec for P2X2 and P2X2/3 receptors, 180 s for P2X3 receptors) of applying the control solution. Cells expressing hP2X3 were washed with 3 Units/mL apyrase for 30 min to remove ATP. To ensure the comparability of the data points between each application, we rinsed hP2X3 with the following solution for 3 min after each ATP application (mM): 142 NaCl, 10 HEPES, 10 glucose, 2 CaCl2, and 1 MgCl2 at pH 7.4. After sufficient recovery, we switched to the bath solution for 10 s and then to the solution of interest. The speed of the switch around a whole cell was estimated to be below 10 ms by switching between different salt solutions.
# The saturation of activation was determined with ATP at 100 µM. The currents were recorded with a HEKA EPC 10 amplifier in combination with the patchmaster software. The sampling rate was 10 kHz and the recordings were on-line filtered at 2.9 kHz using a four-pole Bessel filter. The currents were recorded at a constant holding potential of −50 mV and the series resistance was compensated with the patchmaster software up to 80%.
# The concentration–activation relationships from whole-cell measurements in the HEK293 cells were obtained from the maximum currents during ATP application. These current amplitudes were normalised with respect to the current at saturating ATP (100 µM) and the resulting data points were fitted I/ImaxATP = Amp/(1 + (EC50/[X])^h) (1) with the Origin 2019® software using a non-linear curve fitting routine. I is the actual current amplitude and ImaxATP is the maximum current amplitude at saturating ATP. The amplitude Amp is the efficacy of the respective ligands. EC50 is the ligand concentration generating the half-maximum current and h is the respective Hill coefficient. [X] is the actual concentration of ATP to be tested. […]
Hill,Effect (Fold in ATP Potency),Effect (Fold in ATP Efficacy),EC50,SMILES
1.6 ± 0.1,0.9 fold,0.8 fold,1.3 ± 0.1 µM,"COCC[N+]1=C(C=CC=C2N(CCCCCC(=O)NCCCCCCSc3nc(N)c4ncn(C5OC(COP(=O)(O)OP(=O)(O)OP(=O)(O)O)C(O)C5O)c4n3)c3ccc(S(=O)(=O)O)cc3C2(C)C)C(C)(C)c2cc(S(=O)(=O)[O-])ccc21 (centres unmarked) [fATP, 2-[DY-547P1]-AHT-ATP]"
3.5 ± 0.0,0.1 fold,1.0 fold,8.1 µM,"COCC[N+]1=C(C=CC=C2N(CCCCCC(=O)NCCCCCCSc3nc(N)c4ncn(C5OC(COP(=O)(O)CP(=O)(O)OP(=O)(O)O)C(O)C5O)c4n3)c3ccc(S(=O)(=O)O)cc3C2(C)C)C(C)(C)c2cc(S(=O)(=O)[O-])ccc21 (stereo not drawn) [α,βMe-fATP, 2-[DY-547P1]-AHT-α,βMe-ATP]"
